Test results from the kinase profiling compilation of Christmann-Franck et al. (2016).

Assays:
Experiment in all cases: KINOMEscan competition binding
Details in all cases: compound 10.0 µM
RPS6KA2 KD2 (human) = RPS6KA2 KD2 (human) (UniProt Q15349)
BLK (human) = BLK (human) (UniProt P51451)
ULK1 (human) = ULK1 (human) (UniProt O75385)
SRMS (human) = SRMS (human) (UniProt Q9H3Y6)
TAOK1 (human) = TAOK1 (human) (UniProt Q7L7X3)
PAK4 (human) = PAK4 (human) (UniProt O96013)
PTK2B (human) = PTK2B (human) (UniProt Q14289)
MAP4K4 (human) = MAP4K4 (human) (UniProt O95819)
FGFR2 (human) = FGFR2 (human) (UniProt P21802)
STK10 (human) = STK10 (human) (UniProt O94804)
MYO3B (human) = MYO3B (human) (UniProt Q8WXR4)
MERTK (human) = MERTK (human) (UniProt Q12866)
Chain of MERTK (human) (Q12866 whole entry, looked up): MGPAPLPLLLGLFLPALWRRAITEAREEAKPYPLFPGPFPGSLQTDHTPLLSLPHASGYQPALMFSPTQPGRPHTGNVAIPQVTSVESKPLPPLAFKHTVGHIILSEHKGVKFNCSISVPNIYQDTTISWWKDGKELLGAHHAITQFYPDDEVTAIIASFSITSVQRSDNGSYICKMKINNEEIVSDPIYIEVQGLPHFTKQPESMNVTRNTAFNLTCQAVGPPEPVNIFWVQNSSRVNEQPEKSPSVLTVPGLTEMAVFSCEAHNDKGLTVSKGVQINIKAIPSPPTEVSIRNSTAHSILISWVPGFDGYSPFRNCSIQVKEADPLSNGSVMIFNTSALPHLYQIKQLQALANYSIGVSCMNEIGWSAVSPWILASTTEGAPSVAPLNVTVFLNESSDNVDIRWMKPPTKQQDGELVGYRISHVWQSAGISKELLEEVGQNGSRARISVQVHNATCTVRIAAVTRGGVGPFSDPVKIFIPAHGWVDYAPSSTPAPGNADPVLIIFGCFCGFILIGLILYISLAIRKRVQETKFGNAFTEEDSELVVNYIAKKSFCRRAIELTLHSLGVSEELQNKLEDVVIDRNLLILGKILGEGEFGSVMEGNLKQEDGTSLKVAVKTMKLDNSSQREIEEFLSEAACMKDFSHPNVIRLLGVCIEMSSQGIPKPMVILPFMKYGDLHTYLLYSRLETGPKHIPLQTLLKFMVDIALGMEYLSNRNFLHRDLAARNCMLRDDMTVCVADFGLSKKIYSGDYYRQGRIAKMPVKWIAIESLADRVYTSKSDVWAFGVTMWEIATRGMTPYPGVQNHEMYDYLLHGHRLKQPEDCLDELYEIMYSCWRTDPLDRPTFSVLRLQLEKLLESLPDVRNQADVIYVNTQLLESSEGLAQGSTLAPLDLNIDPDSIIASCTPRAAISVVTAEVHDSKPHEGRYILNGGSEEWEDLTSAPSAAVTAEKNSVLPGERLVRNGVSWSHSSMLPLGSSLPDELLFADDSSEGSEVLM

ROCK2 (human) = ROCK2 (human) (UniProt O75116)
MUSK (human) = MUSK (human) (UniProt O15146)
Chain of MUSK (human) (O15146 whole entry, looked up): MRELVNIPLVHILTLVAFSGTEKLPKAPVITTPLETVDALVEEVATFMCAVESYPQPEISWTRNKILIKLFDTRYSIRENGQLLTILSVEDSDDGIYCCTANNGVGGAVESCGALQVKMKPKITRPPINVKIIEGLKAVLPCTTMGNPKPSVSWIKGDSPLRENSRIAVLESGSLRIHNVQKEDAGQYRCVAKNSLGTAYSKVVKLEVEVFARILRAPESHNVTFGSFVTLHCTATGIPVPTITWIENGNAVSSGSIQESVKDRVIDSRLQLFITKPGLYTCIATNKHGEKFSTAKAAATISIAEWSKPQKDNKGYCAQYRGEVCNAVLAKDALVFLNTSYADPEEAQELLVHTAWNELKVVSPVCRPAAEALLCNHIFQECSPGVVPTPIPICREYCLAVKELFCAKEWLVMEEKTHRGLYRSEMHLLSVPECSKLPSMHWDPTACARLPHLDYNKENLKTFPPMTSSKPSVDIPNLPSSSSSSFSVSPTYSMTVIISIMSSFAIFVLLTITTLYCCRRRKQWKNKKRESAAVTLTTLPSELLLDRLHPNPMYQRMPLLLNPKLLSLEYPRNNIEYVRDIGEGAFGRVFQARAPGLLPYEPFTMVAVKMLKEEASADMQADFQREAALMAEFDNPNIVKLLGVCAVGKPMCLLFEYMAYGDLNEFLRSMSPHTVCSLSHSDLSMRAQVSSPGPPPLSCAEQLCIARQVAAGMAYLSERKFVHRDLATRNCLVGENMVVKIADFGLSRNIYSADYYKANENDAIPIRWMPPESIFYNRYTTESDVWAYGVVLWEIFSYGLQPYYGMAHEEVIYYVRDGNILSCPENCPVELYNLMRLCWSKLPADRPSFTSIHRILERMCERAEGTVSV

TXK (human) = TXK (human) (UniProt P42681)
MST1R (human) = MST1R (human) (UniProt Q04912)
PIM2 (human) = PIM2 (human) (UniProt Q9P1W9)
Chain of PIM2 (human) (Q9P1W9 whole entry, looked up): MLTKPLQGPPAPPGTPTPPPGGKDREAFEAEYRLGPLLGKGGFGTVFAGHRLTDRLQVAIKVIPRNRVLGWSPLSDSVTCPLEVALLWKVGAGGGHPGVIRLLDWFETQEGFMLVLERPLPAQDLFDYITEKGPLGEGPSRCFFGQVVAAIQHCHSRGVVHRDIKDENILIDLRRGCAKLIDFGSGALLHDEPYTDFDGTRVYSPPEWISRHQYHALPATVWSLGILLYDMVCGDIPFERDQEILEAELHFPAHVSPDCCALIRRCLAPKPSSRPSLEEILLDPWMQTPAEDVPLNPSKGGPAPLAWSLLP

IGF1R (human) = IGF1R (human) (UniProt P08069)
FGR (human) = FGR (human) (UniProt P09769)
FRK (human) = FRK (human) (UniProt P42685)
NEK2 (human) = NEK2 (human) (UniProt P51955)
Chain of NEK2 (human) (P51955 whole entry, looked up): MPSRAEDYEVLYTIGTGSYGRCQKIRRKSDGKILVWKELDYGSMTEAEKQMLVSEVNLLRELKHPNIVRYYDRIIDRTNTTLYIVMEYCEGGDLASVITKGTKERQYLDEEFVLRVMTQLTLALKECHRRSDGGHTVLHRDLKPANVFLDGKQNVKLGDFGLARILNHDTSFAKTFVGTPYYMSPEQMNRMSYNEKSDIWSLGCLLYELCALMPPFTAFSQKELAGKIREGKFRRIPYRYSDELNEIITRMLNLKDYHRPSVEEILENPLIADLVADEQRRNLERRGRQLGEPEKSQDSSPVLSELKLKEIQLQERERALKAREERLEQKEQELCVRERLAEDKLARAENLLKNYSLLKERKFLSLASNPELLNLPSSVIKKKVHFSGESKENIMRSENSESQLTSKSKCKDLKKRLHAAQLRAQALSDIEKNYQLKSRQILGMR

MAPK3 (human) = MAPK3 (human) (UniProt P27361)
Chain of MAPK3 (human) (P27361 whole entry, looked up): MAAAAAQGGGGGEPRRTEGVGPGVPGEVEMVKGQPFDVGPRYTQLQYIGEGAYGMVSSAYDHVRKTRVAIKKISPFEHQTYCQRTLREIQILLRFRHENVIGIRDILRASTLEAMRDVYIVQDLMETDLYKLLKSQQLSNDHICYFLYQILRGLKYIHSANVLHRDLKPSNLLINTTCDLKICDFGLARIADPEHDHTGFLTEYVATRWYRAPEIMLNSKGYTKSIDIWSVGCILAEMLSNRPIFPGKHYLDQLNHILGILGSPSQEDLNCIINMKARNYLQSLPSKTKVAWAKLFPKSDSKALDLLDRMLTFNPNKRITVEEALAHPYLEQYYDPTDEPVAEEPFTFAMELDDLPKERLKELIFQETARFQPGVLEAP

MYLK (human) = MYLK (human) (UniProt Q15746)
TGFBR1 (human) = TGFBR1 (human) (UniProt P36897)
MYLK4 (human) = MYLK4 (human) (UniProt Q86YV6)
ERBB2 (human) = ERBB2 (human) (UniProt P04626)
Chain of ERBB2 (human) (P04626 whole entry, looked up): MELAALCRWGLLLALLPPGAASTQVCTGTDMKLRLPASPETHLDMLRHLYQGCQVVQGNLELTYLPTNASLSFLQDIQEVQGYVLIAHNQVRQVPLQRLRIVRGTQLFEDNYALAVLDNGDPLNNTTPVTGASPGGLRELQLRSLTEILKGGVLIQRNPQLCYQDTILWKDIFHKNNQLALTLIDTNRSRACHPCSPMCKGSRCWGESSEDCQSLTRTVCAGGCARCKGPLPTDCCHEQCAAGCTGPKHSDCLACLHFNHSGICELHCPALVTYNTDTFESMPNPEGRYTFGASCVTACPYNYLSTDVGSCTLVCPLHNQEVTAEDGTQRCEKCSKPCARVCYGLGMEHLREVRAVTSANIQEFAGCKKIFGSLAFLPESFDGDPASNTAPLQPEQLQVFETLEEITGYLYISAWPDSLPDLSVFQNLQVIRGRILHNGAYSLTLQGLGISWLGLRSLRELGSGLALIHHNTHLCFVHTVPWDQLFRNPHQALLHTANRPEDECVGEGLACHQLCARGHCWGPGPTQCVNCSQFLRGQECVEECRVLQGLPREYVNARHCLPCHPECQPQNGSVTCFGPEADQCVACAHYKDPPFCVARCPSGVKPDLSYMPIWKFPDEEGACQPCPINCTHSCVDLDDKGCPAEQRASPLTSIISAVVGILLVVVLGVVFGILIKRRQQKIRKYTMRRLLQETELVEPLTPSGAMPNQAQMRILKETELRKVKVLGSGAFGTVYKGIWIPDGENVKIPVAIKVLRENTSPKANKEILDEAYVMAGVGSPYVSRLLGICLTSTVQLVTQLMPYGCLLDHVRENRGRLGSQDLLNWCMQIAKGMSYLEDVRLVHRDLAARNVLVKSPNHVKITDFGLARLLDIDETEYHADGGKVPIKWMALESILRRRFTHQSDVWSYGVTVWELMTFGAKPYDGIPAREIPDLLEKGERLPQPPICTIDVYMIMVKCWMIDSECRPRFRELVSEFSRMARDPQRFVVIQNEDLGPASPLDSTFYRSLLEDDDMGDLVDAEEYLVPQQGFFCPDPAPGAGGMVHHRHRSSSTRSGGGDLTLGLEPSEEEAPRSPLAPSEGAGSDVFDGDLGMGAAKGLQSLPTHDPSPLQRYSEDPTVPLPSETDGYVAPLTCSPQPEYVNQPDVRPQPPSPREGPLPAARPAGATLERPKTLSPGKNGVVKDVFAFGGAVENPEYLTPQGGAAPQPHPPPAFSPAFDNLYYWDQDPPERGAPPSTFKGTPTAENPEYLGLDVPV

TGFBR2 (human) = TGFBR2 (human) (UniProt P37173)
CAMK4 (human) = CAMK4 (human) (UniProt Q16566)
[1] = system: EGFR (human), P00533 [G719C]
TYRO3 (human) = TYRO3 (human) (UniProt Q06418)

Chain of SRMS (human) (Q9H3Y6 whole entry, looked up): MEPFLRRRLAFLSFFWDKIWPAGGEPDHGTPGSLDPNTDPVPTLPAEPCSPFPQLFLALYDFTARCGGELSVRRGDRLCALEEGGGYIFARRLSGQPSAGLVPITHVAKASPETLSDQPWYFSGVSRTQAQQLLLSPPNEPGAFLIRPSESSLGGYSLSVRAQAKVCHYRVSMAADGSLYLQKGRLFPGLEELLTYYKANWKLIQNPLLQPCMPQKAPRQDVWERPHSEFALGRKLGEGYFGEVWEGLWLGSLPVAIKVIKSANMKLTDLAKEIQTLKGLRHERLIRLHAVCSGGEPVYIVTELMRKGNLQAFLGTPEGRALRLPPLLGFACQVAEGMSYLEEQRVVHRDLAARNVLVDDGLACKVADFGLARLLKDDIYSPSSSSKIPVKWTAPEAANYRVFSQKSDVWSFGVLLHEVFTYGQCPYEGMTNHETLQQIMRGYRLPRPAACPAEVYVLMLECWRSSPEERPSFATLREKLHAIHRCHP

SMILES | kinase still bound, per cent of control (RPS6KA2 KD2 (human)) [%] | kinase still bound, per cent of control (BLK (human)) [%] | kinase still bound, per cent of control (SRMS (human)) [%] | kinase still bound, per cent of control (PAK4 (human)) [%] | kinase still bound, per cent of control (PTK2B (human)) [%] | kinase still bound, per cent of control (MAP4K4 (human)) [%] | kinase still bound, per cent of control (FGFR2 (human)) [%] | kinase still bound, per cent of control (STK10 (human)) [%] | kinase still bound, per cent of control (MYO3B (human)) [%] | kinase still bound, per cent of control (MERTK (human)) [%] | kinase still bound, per cent of control (MUSK (human)) [%] | kinase still bound, per cent of control (TXK (human)) [%] | kinase still bound, per cent of control (PIM2 (human)) [%] | kinase still bound, per cent of control (IGF1R (human)) [%] | kinase still bound, per cent of control (FGR (human)) [%] | kinase still bound, per cent of control (FRK (human)) [%] | kinase still bound, per cent of control (NEK2 (human)) [%] | kinase still bound, per cent of control (MAPK3 (human)) [%] | kinase still bound, per cent of control (MYLK (human)) [%] | kinase still bound, per cent of control (TGFBR1 (human)) [%] | other results
COc1cc(N2CCC(C(N)=O)CC2)ccc1Nc1nc(N)c(Cl)c(Nc2ccccc2S(=O)(=O)C(C)C)n1 | 18 | 22 | 7.3 | 100 | 0.15 | 100 | 100 | 100 | 24 | 32 | 100 | 100 | 100 | 0.65 | 100 | 6.6 | 100 | 100 | 5 | 100 | kinase still bound, per cent of control (ULK1 (human)): 100%; kinase still bound, per cent of control (TAOK1 (human)): 100%; kinase still bound, per cent of control (ROCK2 (human)): 100%; kinase still bound, per cent of control (MST1R (human)): 100%; kinase still bound, per cent of control (MYLK4 (human)): 100%; kinase still bound, per cent of control (ERBB2 (human)): 18%; kinase still bound, per cent of control (TGFBR2 (human)): 100%; kinase still bound, per cent of control (CAMK4 (human)): 13%; kinase still bound, per cent of control [1]: 20%; kinase still bound, per cent of control (TYRO3 (human)): 100%
COc1ccc(N(C(=O)Oc2cc(C(=O)Nc3cccc(C(F)(F)F)c3)ccc2C)c2ccnc(Nc3ccc(N4CCN(C)CC4)cc3)n2)c(OC)c1 | 100 | 0.45 | 0 | 100 | 0.9 | 7 | 3.4 | 0 | 100 | 1.2 | 20 | 0.65 | 100 | 100 | 1.2 | 0.4 | 100 | 100 | 100 | 100 | kinase still bound, per cent of control (MYLK4 (human)): 100%; kinase still bound, per cent of control (ERBB2 (human)): 100%; kinase still bound, per cent of control (TGFBR2 (human)): 100%; kinase still bound, per cent of control (CAMK4 (human)): 100%; kinase still bound, per cent of control [1]: 23%; kinase still bound, per cent of control (TYRO3 (human)): 100%
